# Laboratory results published in US8524635B2, “Antifungal composition” (DSM IP Assets B.V., priority 2006, dated 2013).
# Key:
# [1] = tested on: Fusarium oxysporum f. sp. tulipae CBS116591 and Fusarium oxysporum f. sp. tulipae Tu467; assay: Tulip bulbs (Prominence) inoculated with mould spores, treated, planted in pots; infection scored at full bloom; format: in vivo; details: for % of bulbs infected: average of 60 bulbs, control 100
# Experimental: (§1) In this example tulip bulbs of the variety Prominence were treated with a 1:1 mixture of spores of the pathogenic moulds Fusarium oxysporum f. sp. tulipae CBS116591 and Fusarium oxysporum f. sp. tulipae Tu467 by submersing the bulbs for 30 minutes in a suspension containing 50.000-100.000 spores per ml. The mould spores were obtained using well-known methods. It should be noticed that in this challenge test the effect of the compositions was tested under very severe circumstances, because a very high number of mould spores was used. In real practise, the disease pressure will be less severe.
# (§2) After the inoculation with mould spores the bulbs were dried following well-known methods. 40-60 minutes after drying the bulbs were treated with the different compositions described in Table 1. The compositions were prepared according to the instructions described on the label. All compositions contained 0.1% (v/v) of the sticking agent Prolong® (Holland Fyto, The Netherlands) and the surfactant Zipper® (Asepta BV, The Netherlands) in a concentration of 1 ml/l. Subsequently, the bulbs were planted in soil in pots (10 bulbs per pot) and incubated under well known standard conditions for growing tulips.
# The bulbs were examined for mould infection when the flowers were at full bloom. For each incubation the average observation of 60 bulbs is given. Statistical analysis was performed after an ASIN transformation. The LSD at P=5% was 6.50.
# [2] = tested on: Fusarium oxysporum f. sp. tulipae CBS 116593; assay: Wounded tulip bulbs infected after harvest, treated and stored 15 days at 24° C., visual mould growth; format: in vivo; details: 15 days storage; for Amount of non-infected bulbs (in %): control 40; for Amount of bulbs with visible moulds (in %): control 60
# Description: In this experiment tulip bulbs of the variety Prominence were infected just after harvesting with a spore suspension of Fusarium oxysporum f. sp. tulipae CBS 116593 and treated with the antifungal compositions presented in Table 3. This time, the bulbs were not planted but stored. In this experiment the efficacy of the antifungal composition during the storage of the bulbs was studied.
# After harvesting, the outer dry skin of the bulbs was removed and the bulbs were disinfected by applying a treatment with 4% (v/v) Glorix® for 5 minutes. The bulbs were dried and a lesion of a few millimeters was made in the surface of the bulb using a knife. The wound was infected with 15 μl of a spore suspension of Fusarium oxysporum f. sp. tulipae; this way approximately 10.000 mould spores infected the wound after which the bulbs were treated with 30 μl of the compositions described in Table 3. Twenty bulbs were treated per composition. In one experiment the treatment with the antifungal composition was applied 12 hours after infection. The bulbs were incubated for 15 days at a temperature of 24° C. after which the bulbs were examined visually on mould growth.
# Fusarium mould = details: Example 11 of WO 2004/067699; cited from earlier work
# Fusarium oxysporum = details: bulbs dipped two hours at 43.5° C.; Dekker and Langerak (1979); cited from earlier work
# [3] = tested on: Fusarium oxysporum f. sp. tulipae CBS116591 and Fusarium oxysporum f. sp. tulipae Tu467; assay: Tulip bulb treatment as in Example 1, infected bulbs scored and grouped by ANOVA; format: in vivo; details: control 90.0, LSD at P=5% 6.50
# Experimental: as §1, §2
# This example describes the results of an experiment performed as described in Example 1. Just as in the experiment performed in Example 1, the pH of all solutions was adjusted to 5.7 with KOH or K2CO3 which results in a mixture of two phosphites, KH2PO3 and K2HPO3.
# The results obtained with a composition comprising 25% of a standard cocktail which is generally applied in practice are included. This standard cocktail contains the commercial products 0.5% (v/v) Captan (546 gram active ingredient per liter), 0.3% (v/v) Prochloraz (450 g/l) and 1% (v/v) Topsin M (500 g/l). The number of infected bulbs was scored and grouped using the well-known statistical method ANOVA (LSD at P=5% was 6.50).
# [4] = cited from earlier work
# most fungi = details: for most fungi; cited from earlier work
# Helminthosporium solani = assay: Seed-potatoes naturally contaminated with silver scurf, sprayed and stored; mould growth and sporulation; format: in vivo
# Experimental: Freshly harvested seed-potatoes naturally contaminated with silver scurf were selected for this experiment. The seed-potatoes were treated with the compositions described in Table 4. All compositions contained 0.1% (v/v) of the sticking agent Prolong® (Holland Fyto, The Netherlands) and the surfactant Zipper® (Asepta BV, The Netherlands) in a concentration of 1 ml/l. Said compositions were sprayed on the seed-potatoes using well-known methods after which the seed-potatoes were stored under standard conditions. For each composition 9×25 seed-potatoes were used; of each composition one triple set of seed-potatoes (3×25) was judged visually on mould growth after 1 month of storage (t=1), after 3 months of storage (t=3) and after 6 months of storage (t=6). The mould growth is reported as increase of surface covered with moulds (in percentage). In addition the sporulation of the moulds on the seed-potatoes was examined and scored on a scale from 0 to 4 (0=no sporulation; 4=high sporulation).
molecule,measurement,setting,value
copper lignosulphonate,effect on mould infection of tulip bulbs (in words),[1]; conclusion from Table 1,did not lead to reduction of moulds
same,% of bulbs infected,[1]; copper lignosulphonate 2 g/l,97%
C[C@@H]1C/C=C/C=C/C=C/C=C/[C@H](O[C@@H]2O[C@H](C)[C@@H](O)[C@H](N)[C@@H]2O)C[C@@H]2O[C@](O)(C[C@@H](O)C[C@H]3O[C@@H]3/C=C/C(=O)O1)C[C@H](O)[C@H]2C(=O)O [natamycin],Amount of non-infected bulbs (in %),[2]; 500 ppm natamycin,60%
same,Amount of bulbs with visible moulds (in %),[2]; 500 ppm natamycin,40%
same,yellow mould spots on leaves growing from treated tulip bulbs (in words),Fusarium mould,some yellow spots
same,% of bulbs infected,[1]; natamycin 0.2 g/l,88%
same,% of bulbs infected,[1]; natamycin 0.5 g/l,90%
same,preventing the spread of Fusarium oxysporum in the water baths (in words),Fusarium oxysporum,as effective as organic mercury or formalin
same,Score (mould infection of tulip bulbs),[3]; 200 ppm natamycin,76.0
same,Score (mould infection of tulip bulbs),[3]; 500 ppm natamycin,75.0
same,solubility in water,[4],30-50 ppm
same,MIC (Minimal Inhibitory Concentration),most fungi,less than 10 ppm
same,Increase in percentage of the surface of seed-potatoes covered with mould,"Helminthosporium solani; natamycin 2000 ppm, t = 1 (1 month of storage), water control 3.8",1.5%
same,Sporulation of silver scurf moulds on seed potatoes,"Helminthosporium solani; natamycin 2000 ppm, t = 1, scale 0 to 4, water control 2.7",0.8
same,Increase in percentage of the surface of seed-potatoes covered with mould,"Helminthosporium solani; natamycin 2000 ppm, t = 3 (3 months of storage), water control 3.4",3.0%
same,Sporulation of silver scurf moulds on seed potatoes,"Helminthosporium solani; natamycin 2000 ppm, t = 3, scale 0 to 4, water control 1.8",1.1
same,Increase in percentage of the surface of seed-potatoes covered with mould,"Helminthosporium solani; natamycin 2000 ppm, t = 6 (6 months of storage), water control 7.8",3.8%
same,Sporulation of silver scurf moulds on seed potatoes,"Helminthosporium solani; natamycin 2000 ppm, t = 6, scale 0 to 4, water control 2.4",1.8
same,Increase in percentage of the surface of seed-potatoes covered with mould,"Helminthosporium solani; natamycin 5000 ppm, t = 1 (1 month of storage), water control 3.8",0.8%
same,Sporulation of silver scurf moulds on seed potatoes,"Helminthosporium solani; natamycin 5000 ppm, t = 1, scale 0 to 4, water control 2.7",0.6
same,Increase in percentage of the surface of seed-potatoes covered with mould,"Helminthosporium solani; natamycin 5000 ppm, t = 3 (3 months of storage), water control 3.4",2.6%
same,Sporulation of silver scurf moulds on seed potatoes,"Helminthosporium solani; natamycin 5000 ppm, t = 3, scale 0 to 4, water control 1.8",1.2
same,Increase in percentage of the surface of seed-potatoes covered with mould,"Helminthosporium solani; natamycin 5000 ppm, t = 6 (6 months of storage), water control 7.8",3.5%
same,Sporulation of silver scurf moulds on seed potatoes,"Helminthosporium solani; natamycin 5000 ppm, t = 6, scale 0 to 4, water control 2.4",0.7
potassium phosphite,Amount of non-infected bulbs (in %),[2]; 120 mM phosphite,50%
same,Amount of bulbs with visible moulds (in %),[2]; 120 mM phosphite,50%
same,% of bulbs infected,[1]; potassium phosphite 20 g/l,87%
same,Score (mould infection of tulip bulbs),"[3]; 120 mM phosphite, pH 5.7",72.9
same,Increase in percentage of the surface of seed-potatoes covered with mould,"Helminthosporium solani; phosphite 120 mM, t = 1 (1 month of storage), water control 3.8",2.5%
same,Sporulation of silver scurf moulds on seed potatoes,"Helminthosporium solani; phosphite 120 mM, t = 1, scale 0 to 4 (0=no sporulation; 4=high sporulation), water control 2.7",1.3
same,Increase in percentage of the surface of seed-potatoes covered with mould,"Helminthosporium solani; phosphite 120 mM, t = 3 (3 months of storage), water control 3.4",4.0%
same,Sporulation of silver scurf moulds on seed potatoes,"Helminthosporium solani; phosphite 120 mM, t = 3, scale 0 to 4, water control 1.8",1.0
same,Increase in percentage of the surface of seed-potatoes covered with mould,"Helminthosporium solani; phosphite 120 mM, t = 6 (6 months of storage), water control 7.8",6.9%
same,Sporulation of silver scurf moulds on seed potatoes,"Helminthosporium solani; phosphite 120 mM, t = 6, scale 0 to 4, water control 2.4",1.3
